# Marks after values point to notes of the source that are not given here.
# Experiments:
# Format in all cases: cell-based, Chinese hamster
# rCHO-1 cells [1] = assay: Suspension culture of rCHO-1 cells: antibody level by sandwich ELISA
# Text: (§1) Two recombinant CHO DG44 cell lines (hereinafter referred to as “rCHo-1” and “rCHO-2”) were used for monoclonal antibody (mAB) production. Each cell line was passaged 8 times or more and suspension adapted in a protein-free medium (HY-PFM, in-house) or chemically defined medium (HY-CDM, in-house). The suspension-adapted cell line was used to evaluate how the concentrations of trace elements, the selection of an effective trace element, and the concentration of ZnSO4.7H2O (Zn) affected the growth of cells and the production of antibody in commercial chemically defined media.
# (§2) The cell line was inoculated at a density of 4×10^5 cells/ml and cultured in an Erlenmeyer flask with a 30 ml/125 ml working volume on an orbital shaker at 120 rpm under humidified conditions at 37° C. and 5% CO2. Before inoculation, the cells were centrifuged at 1,000 rpm (×162 g) for 5 min, the supernatant was discarded, and the remaining cells were dispersed into single cells in the heated medium. The cells were passaged three times to minimize the influence of the remaining medium under the experimental conditions. The subcultured cells were evaluated.
# 4, 6, 8, 10, and 12 days after cells were inoculated under the experimental conditions, cell culture fluids were sampled, centrifuged at 1,000 rpm (×162 g) for 5 min, and stored at −20° C. before antibody analysis. Antibody levels were measured by sandwich enzyme linked immunosorbent assay (ELISA). For the detection of mAB by ELISA, anti-human IgG (Fab specific) (I5260, Sigma, St. Louis, Mo., USA) was used as a primary antibody and human IgG (Fc specific)-horseradish peroxidase (A0170, Sigma) was used as a chromogenic antibody. 1% (w/v) bovine serum albumin/phosphate buffered saline was used for blocking, 3,3′,5,5′-tetramethylbenzidine (TMB) solution (KPL, Gaithersburg, Md., USA) was used as a chromogenic reagent. The chromogenic reaction was stopped with 2 M H2SO4. For antibody level analysis, absorbance values were measured at a wavelength of 450 nm using a kinetic microplate reader (Molecular Devices, Sunnyvale, Calif., USA).
# rCHO-1 cells [2] = assay: Suspension culture of rCHO-1 cells: density of live cells, growth and longevity (hemocytometer, trypan blue dye exclusion)
# Text: as §1, §2
# The density of live cells was analyzed using a hemocytometer (Neubauer improved bright-line, Marienfeld, Germany), an inverted microscope (CK30, Olympus, Japan), and trypan blue dye exclusion.
# rCHO-2 cells = assay: Suspension culture of rCHO-2 cells: antibody level by sandwich ELISA; conditions: HY-CDM, Zn around 60-75 μM
# Text: as §1
# The cell line was inoculated at a density of 4×10^5 cells/ml and cultured in an Erlenmeyer flask with a 30 ml/125 ml working volume on an orbital shaker at 120 rpm under humidified conditions at 37° C. and 5% CO2. […] The subcultured cells were evaluated.
# 4, 6, 8, 10, and 12 days after cells were inoculated under the experimental conditions, cell culture fluids were sampled, centrifuged at 1,000 rpm (×162 g) for 5 min, and stored at −20° C. before antibody analysis. Antibody levels were measured by sandwich enzyme linked immunosorbent assay (ELISA). […] For antibody level analysis, absorbance values were measured at a wavelength of 450 nm using a kinetic microplate reader (Molecular Devices, Sunnyvale, Calif., USA).
# [3] = HY-CDM, Zn around 60-75 μM, rCHO-1
# [4] = HY-PFM, trace element individually added in 20-fold amount of control
# [5] = commercial CDM-1, 2 and 3, Zn ions enhanced to 60 μM
smiles,measurement,setting,value
"O.O.O.O.O.O.O.O=S(=O)([O-])[O-].[Zn+2] [Zn, ZnSO4.7H2O]",qmAB at the initial stage of cell culture (0-4 days),"rCHO-1 cells [1]; HY-CDM, Zn 60 μM",5.1 pcd
same,antibody production compared to control group,rCHO-1 cells [1]; [3],6.6 fold
same,antibody production rate (maximum),rCHO-1 cells [1]; [3],440 mg/L
same,increase in antibody production compared to control group,"rCHO-1 cells [1]; HY-PFM and HY-CDM, Zn 60 μM",≥ 2 fold
same,"qmAB at the initial stage (0-4 days), times those in control group","rCHO-1 cells [1]; HY-PFM and HY-CDM, Zn 60 μM vs 3 μM",at least 1.7 times
same,qmAB at the initial stage of cell culture (0-4 days),"rCHO-1 cells [1]; HY-PFM, Zn 60 μM",9.4 pcd
same,antibody production (maximum),"rCHO-1 cells [1]; HY-PFM, Zn 45-60 μM",360 mg/L
same,antibody production relative to control group,"rCHO-1 cells [1]; HY-PFM, Zn 45-60 μM vs control (3 μM)",twice
same,maximum antibody level,rCHO-1 cells [1]; [4],260 mg/L
same,"qmAB (ped, 0-4 days)","rCHO-1 cells [1]; Zn 3 μM (control level), CDM",3.07 ± 0.19 ped
same,"qmAB (ped, 4-8 days)","rCHO-1 cells [1]; Zn 3 μM (control level), CDM, calculated from the results obtained 4-6 days after cell culture",1.47 ± 0.10^a ped
same,"qmAB (ped, 0-4 days)","rCHO-1 cells [1]; Zn 3 μM (control level), PFM",4.99 ± 0.13 ped
same,"qmAB (ped, 4-8 days)","rCHO-1 cells [1]; Zn 3 μM (control level), PFM",1.75 ± 0.01 ped
same,"qmAB (ped, 0-4 days)","rCHO-1 cells [1]; Zn 60 μM, CDM",5.06 ± 0.07 ped
same,"qmAB (ped, 4-8 days)","rCHO-1 cells [1]; Zn 60 μM, CDM",3.30 ± 0.01 ped
same,"qmAB (ped, 0-4 days)","rCHO-1 cells [1]; Zn 60 μM, PFM",9.35 ± 0.11 ped
same,"qmAB (ped, 4-8 days)","rCHO-1 cells [1]; Zn 60 μM, PFM",3.74 ± 0.04 ped
same,effectiveness in producing antibody by batch culture,"rCHO-1 cells [1]; Zn ion concentration enhanced to 30-90 μM, recombinant CHO cell lines",very effective in producing antibody by batch culture
same,specific production rates of antibody,"rCHO-1 cells [1]; Zn ions enhanced to 30 μM, protein-free and chemically defined media, recombinant CHO cell lines",improved
same,"qmAB at the late stage (4-8 days), times higher than control group","rCHO-1 cells [1]; both media (HY-PFM, HY-CDM), Zn 60 μM vs 3 μM",2.1 times
same,"antibody productivities, times higher than control group",rCHO-1 cells [1]; [5],1.2-1.5 times
same,cell growth and antibody production,"rCHO-1 cells [1]; commercial CDM-4 (CD OptiCHO), Zn ions enhanced to 60 μM",only continuous cell growth and antibody production was observed
same,"cell longevity (cell viability of 80%), times higher than control group","rCHO-1 cells [2]; HY-CDM, Zn 60 μM",1.8 times
same,live cell densities,"rCHO-1 cells [2]; HY-PFM and HY-CDM, Zn 60 μM",9×10^6 cells/ml
same,period for which live cell density was maintained during cell culture,"rCHO-1 cells [2]; HY-PFM and HY-CDM, Zn 60 μM",at least 9 days
same,"cell longevity (cell viability of 80%), times higher than control group","rCHO-1 cells [2]; HY-PFM, Zn 60 μM",1.4 times
same,maximum cell density,rCHO-1 cells [2]; [4],1.1×10^7 cells/ml
same,Cell longevity (day/80% viability),"rCHO-1 cells [2]; Zn 3 μM (control level), CDM",5.1 ± 0.0 days
same,μ,"rCHO-1 cells [2]; Zn 3 μM (control level), CDM",1.01 ± 0.04 day⁻¹
same,Cell longevity (day/80% viability),"rCHO-1 cells [2]; Zn 3 μM (control level), PFM",6.2 ± 0.0 days
same,μ,"rCHO-1 cells [2]; Zn 3 μM (control level), PFM",0.87 ± 0.01 day⁻¹
same,Cell longevity (day/80% viability),"rCHO-1 cells [2]; Zn 60 μM, CDM",9.3 ± 0.4 days
same,μ,"rCHO-1 cells [2]; Zn 60 μM, CDM",1.00 ± 0.00 day⁻¹
same,Cell longevity (day/80% viability),"rCHO-1 cells [2]; Zn 60 μM, PFM",8.5 ± 0.2 days
same,μ,"rCHO-1 cells [2]; Zn 60 μM, PFM",0.90 ± 0.02 day⁻¹
same,inhibitory effect on cell growth,"rCHO-1 cells [2]; Zn ion concentration enhanced to 30-60 μM, recombinant CHO cell lines",no inhibitory effect on cell growth
same,inhibition of cell growth,rCHO-1 cells [2]; [5],No inhibition of cell growth was observed
same,antibody production compared to control group,rCHO-2 cells,1.3 fold
same,antibody production rate (maximum),rCHO-2 cells,210 mg/L

# From patent US20200216800A1, “CELL CULTURE MEDIUM FOR PRODUCING TARGET MATERIAL AT HIGH EFFICIENCY BY USING MAMMALIAN CELLS, CELL CULTURING METHOD USING SAME, AND METHOD OF PRODUCING TARGET MATERIAL” (priority 2015, published 2020)
